Where two headings read alike, the source gives them in different places.
Assays:
Type in all cases: cell-based, human
[1] = tested on: senescent A549 cells (etoposide-induced); assay: Nuclei count senolytic assay, therapy-induced senescence (TIS) model, senescent cells; conditions: Homo sapiens, A549, Senescent cells, mean, read-out: Mean % Cell Survival
Outline: (§1)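 Nuclei counted by Hoechst 33342 imaging after fixation, following 72 h treatment with compound at 10 nM–10 μM (10-point […], triplicates). Targets were control A549 cells and A549 rendered senescent by 48 h 100 μM etoposide plus 3 days recovery.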

[2] = tested on: non-senescent control A549 cells; assay: Nuclei count senolytic assay, TIS model, non-senescent control cells; conditions: Homo sapiens, A549, Control cells, mean, read-out: Mean % Cell Survival
Outline: as §1

[3] = tested on: non-senescent control IMR90 ER:RAS cells; assay: Nuclei count (Hoechst, high content imaging) senolytic assay, OIS model, non-senescent control cells; conditions: Homo sapiens
Outline: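 Senolytic read-out as total nuclei per well by automated Hoechst imaging after 72 h compound exposure (10 μM to 10 nM, 10-point […], triplicate), relative to untreated controls. Paired cultures: IMR90 ER:RAS kept non-senescent or made senescent with 100 nM final 4-OHT; ouabain served as positive control.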

With `O=c1cc(-c2ccc(O)cc2)oc2cc(O)c(O)c(O)c12` [Scutellarein, scutellarein] as the compound, how does the viability at 10 µM ([1]; log (dose) [M] -5) read?
Its viability at 10 µM is 108%.

What about the viability at 4.68 µM ([1]; log (dose) [M] -5.33) of the same compound?
Its viability at 4.68 µM is 104%.

What about the viability at 2.19 µM ([1]; log (dose) [M] -5.66) of the same compound?
Its viability at 2.19 µM is 105%.

And the viability at 1 µM ([1]; log (dose) [M] -6)?
Its viability at 1 µM is 135%.

What about the viability at 0.468 µM ([1]; log (dose) [M] -6.33) of the same compound?
The viability at 0.468 µM was 106%.

What about the viability at 0.219 µM ([1]; log (dose) [M] -6.66) of the same compound?
Its viability at 0.219 µM is 103%.

What about the viability at 0.1 µM ([1]; log (dose) [M] -7) of the same compound?
Its viability at 0.1 µM is 81.8%.

And the viability at 0.0468 µM ([1]; log (dose) [M] -7.33)?
Its viability at 0.0468 µM is 88.6%.

What about the viability at 0.0219 µM ([1]; log (dose) [M] -7.66) of the same compound?
The viability at 0.0219 µM was 97.4%.

What about the viability at 0.01 µM ([1]; log (dose) [M] -8) of the same compound?
The viability at 0.01 µM was 91.3%.

And the viability at 10 µM ([2]; log (dose) [M] -5)?
Its viability at 10 µM is 111%.

And the viability at 4.68 µM ([2]; log (dose) [M] -5.33)?
The viability at 4.68 µM was 112%.

And the viability at 2.19 µM ([2]; log (dose) [M] -5.66)?
Its viability at 2.19 µM is 105%.

What about the viability at 1 µM ([2]; log (dose) [M] -6) of the same compound?
Its viability at 1 µM is 108%.

What about the viability at 0.468 µM ([2]; log (dose) [M] -6.33) of the same compound?
Its viability at 0.468 µM is 102%.

And the viability at 0.219 µM ([2]; log (dose) [M] -6.66)?
The viability at 0.219 µM was 109%.

And the viability at 0.1 µM ([2]; log (dose) [M] -7)?
Its viability at 0.1 µM is 102%.

And the viability at 0.0468 µM ([2]; log (dose) [M] -7.33)?
Its viability at 0.0468 µM is 99.3%.

And the viability at 0.0219 µM ([2]; log (dose) [M] -7.66)?
The viability at 0.0219 µM was 98.3%.

What about the viability at 0.01 µM ([2]; log (dose) [M] -8) of the same compound?
The viability at 0.01 µM was 99.7%.

What about the viability at 10 µM ([3]; IMR-90, 72 h, Control, log (dose) [M] -5, 72 h, mean n=3 (Fig 3C), read-out: Mean % Cell Survival) of the same compound?
The viability at 10 µM was 97.3%.

And the viability at 4.677 µM ([3]; IMR-90, 72 h, Control, log (dose) [M] -5.33, 72 h, mean n=3 (Fig 3C), read-out: Mean % Cell Survival)?
The viability at 4.677 µM was 95.7%.

What about the viability at 2.188 µM ([3]; IMR-90, 72 h, Control, log (dose) [M] -5.66, 72 h, mean n=3 (Fig 3C), read-out: Mean % Cell Survival) of the same compound?
The viability at 2.188 µM was 88.9%.

What about the viability at 1 µM ([3]; IMR-90, 72 h, Control, log (dose) [M] -6, 72 h, mean n=3 (Fig 3C), read-out: Mean % Cell Survival) of the same compound?
Its viability at 1 µM is 88.2%.

What about the viability at 0.4677 µM ([3]; IMR-90, 72 h, Control, log (dose) [M] -6.33, 72 h, mean n=3 (Fig 3C), read-out: Mean % Cell Survival) of the same compound?
The viability at 0.4677 µM was 95.4%.

And the viability at 0.2188 µM ([3]; IMR-90, 72 h, Control, log (dose) [M] -6.66, 72 h, mean n=3 (Fig 3C), read-out: Mean % Cell Survival)?
Its viability at 0.2188 µM is 109%.

And the viability at 0.1 µM ([3]; IMR-90, 72 h, Control, log (dose) [M] -7, 72 h, mean n=3 (Fig 3C), read-out: Mean % Cell Survival)?
The viability at 0.1 µM was 118%.

What about the viability at 0.04677 µM ([3]; IMR-90, 72 h, Control, log (dose) [M] -7.33, 72 h, mean n=3 (Fig 3C), read-out: Mean % Cell Survival) of the same compound?
The viability at 0.04677 µM was 130%.

What about the viability at 0.02188 µM ([3]; IMR-90, 72 h, Control, log (dose) [M] -7.66, 72 h, mean n=3 (Fig 3C), read-out: Mean % Cell Survival) of the same compound?
The viability at 0.02188 µM was 117%.

What about the viability at 0.01 µM ([3]; IMR-90, 72 h, Control, log (dose) [M] -8, 72 h, mean n=3 (Fig 3C), read-out: Mean % Cell Survival) of the same compound?
Its viability at 0.01 µM is 121%.

What about the viability at 10 µM ([3]; IMR-90, Control, log (dose) [M] -5, read-out: % Cell Survival) of the same compound?
Its viability at 10 µM is 112%.

And the viability at 4.68 µM ([3]; IMR-90, Control, log (dose) [M] -5.33, read-out: % Cell Survival)?
The viability at 4.68 µM was 101%.

What about the viability at 2.19 µM ([3]; IMR-90, Control, log (dose) [M] -5.66, read-out: % Cell Survival) of the same compound?
Its viability at 2.19 µM is 102%.

What about the viability at 1 µM ([3]; IMR-90, Control, log (dose) [M] -6, read-out: % Cell Survival) of the same compound?
The viability at 1 µM was 108%.

And the viability at 0.468 µM ([3]; IMR-90, Control, log (dose) [M] -6.33, read-out: % Cell Survival)?
Its viability at 0.468 µM is 101%.

What about the viability at 0.219 µM ([3]; IMR-90, Control, log (dose) [M] -6.66, read-out: % Cell Survival) of the same compound?
The viability at 0.219 µM was 107%.

What about the viability at 0.1 µM ([3]; IMR-90, Control, log (dose) [M] -7, read-out: % Cell Survival) of the same compound?
The viability at 0.1 µM was 107%.

And the viability at 0.04677 µM ([3]; IMR-90, Control, log (dose) [M] -7.33, read-out: % Cell Survival)?
The viability at 0.04677 µM was 102%.

What about the viability at 0.0219 µM ([3]; IMR-90, Control, log (dose) [M] -7.66, read-out: % Cell Survival) of the same compound?
Its viability at 0.0219 µM is 99.8%.

And the viability at 0.01 µM ([3]; IMR-90, Control, log (dose) [M] -8, read-out: % Cell Survival)?
Its viability at 0.01 µM is 107%.
